Test results: patent publication EP1094724B1, “USE OF A PHENOL OXIDISING ENZYME IN THE TREATMENT OF TOBACCO” (priority 1998, dated 2000)

Biological target: T1, Trametes villosa laccase (TvL) (Trametes villosa, UniProt Q99044)
T1 construct: purchased Novo Nordisk A/S
T1 sequence (Q99044 22-520): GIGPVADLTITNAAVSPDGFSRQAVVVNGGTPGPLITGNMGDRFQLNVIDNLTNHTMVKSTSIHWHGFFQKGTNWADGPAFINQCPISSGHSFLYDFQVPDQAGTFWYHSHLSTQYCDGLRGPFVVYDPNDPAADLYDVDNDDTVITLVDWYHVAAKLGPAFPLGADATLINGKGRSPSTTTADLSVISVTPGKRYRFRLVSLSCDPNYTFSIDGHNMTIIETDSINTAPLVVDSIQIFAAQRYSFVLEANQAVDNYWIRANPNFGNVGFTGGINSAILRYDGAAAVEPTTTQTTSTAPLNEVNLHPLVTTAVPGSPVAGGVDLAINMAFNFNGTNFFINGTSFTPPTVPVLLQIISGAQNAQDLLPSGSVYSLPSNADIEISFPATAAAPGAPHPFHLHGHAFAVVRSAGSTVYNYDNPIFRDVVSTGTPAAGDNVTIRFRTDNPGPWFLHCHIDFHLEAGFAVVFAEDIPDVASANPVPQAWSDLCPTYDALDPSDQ
Assay: Laccase TvL treatment of tobacco extract, HPLC analysis of phenolic compounds (peak area)
Assay type: biochemical
Settings: for % Remaining (peak area) after various treatment times: intensive, submerse aeration; for % Remaining (peak area) after 75 minutes / % Remaining (peak area) after 240 minutes: 1.6 µg/ml TvL, ambient temperature (approximately 20°C); for % Remaining (peak area) after 75 minutes / % Remaining (peak area) after 240 minutes / reduction in the area of the peaks (HPLC) following enzyme treatment: surface aeration; for reduction in the area of the peaks (HPLC) following enzyme treatment: tobacco extract, approximately 1.6 µg/ml TvL, pH 5.5 and 55°C
Procedure: The content of phenolic compounds is analysed by HPLC according to the procedure described below: • Liquid chromatographic system: E.g. Shimadzu SCL-6B System Controller, and two LC-6A Liquid Chromatograph (pumps) or Waters model 600 E • Injector: Shimadzu SIL 6B Autoinjector or Waters 715 Ultra Wisp. UV detector: Shimadzu SPD-6A Photodiode Array UV-VIS detector or Waters Model 481 • Software: CLASS LC10 / CLASS-MXA or Maxima 820 • Column: Supelcosil™ LC-18 25 cm x 4.6 mm (Supelco, #5-8298) or µ Bondapack C198 stainless steel column, 30 cm x 4 mm i.d., 10 µm particle size. • Guard column: none or Guard-Pak from Waters packed with the same material. • Temperature: Ambient • Mobile phase flow: 1.3 ml/min • Injection volume: 20µl • Wavelength: 350 nm • Eluent: Binary gradient (linear) mixture of A: KH2PO4 (28.4 g in 2000 ml de-mineralised water) and B: methanol (please see table 1 and figure 1). The eluent is filtered through a 0.45 µm filter and degassed before use.
Prior to HPLC analysis, the samples were filtered through a 0.45 µm filter or smaller, e.g. a sterile Sartorius Minisart 0.45 µm filter (#16555) or a Millipore Millex-GS 0.22 µm (#SBGS 0 25 SB) to remove the haze/precipitate normally formed during enzyme treatment. Normally, no dilution of the extract/sample was made before HPLC analysis.
For qualitative and semi-quantitative measurements, each of the standards was dissolved in 96% ethanol, and then mixed in a ratio and at a concentration which was within the range in the tobacco extract. For semi-quantification of the phenolic compounds in the tobacco extract, and as a measure of development in concentration of the various compounds contained in the extract, decrease in peak area relative to the peak area before addition of enzyme was used. As a measure of overall efficiency of the process, degree of reduction in total peak area of all peaks (not only the major ones) in the HPLC chromatogram with retention time Rt>3 min was used (named: "All peaks").
Unless otherwise indicated, the tobacco was extracted at a laboratory scale with water according to the following procedure: 1000 ml demineralised water is heated to 45°C. 30 g tobacco (approx. 25 g d.m.) is added and the mixture stirred by a magnetic bar and occasionally with a stick. After 15 minutes the tobacco residue is separated from the tobacco extract by vacuum filtration (Whatman glass micro fibre GF/F 11 cm). The filtered extract is then vacuum filtered at least once more or until it is completely clear. Yield was around 900 ml tobacco extract. […] No buffer was thus included in any of the trials. D.m. content of the extract was approximately 2.1%.
Tobacco extract (typically 50-100 ml) was poured into a glass beaker and a magnetic bar was added. No pH adjustments were made, and no buffer was added. The tobacco extract was heated to and controlled at 55°C during the entire enzyme treatment by means of a heating plate and a thermostat. Intensive submerse aeration was applied by blowing atmospheric air into the extract by means of a metal sinter (metal suction filter normally used for HPLC). The enzyme in question (TvL or PpL) was added to the desired concentration. Shortly after addition of laccase, the colour of the tobacco extract turned dark brown to black, and with time the liquor became turbid and a precipitate formed. The liquor was sampled with intervals for HPLC analysis.
Enzyme treatment: Surface aeration was used. TvL enzyme was added to the tobacco extract to a concentration of approximately 1.6 µg/ml. […] HPLC chromatograms of the tobacco extract before, during, and after enzyme treatment as well as chromatograms of the mixture of HPLC standards are shown in figure 6, 7, ,8, and 9.
Enzyme treatment: pH of the extract was adjusted with H2SO4 or NaOH to pH 4, pH 5, pH 6, or pH 7. The extract was kept at ambient temperature (approximately 20°C) during the entire enzyme treatment. Surface aeration was used. […]

[1] = 40 Min, approximately 1.6 µg/ml TvL at 55°C and pH 5.4
[2] = 40 Min, approximately 7.8µg/ml TvL at 55°C and pH 5.4
[3] = 80 Min, approximately 1.6 µg/ml TvL at 55°C and pH 5.4
[4] = 120 Min, approximately 1.6 µg/ml TvL at 55°C and pH 5.4

| SMILES | % Remaining (peak area) after various treatment times [1] [%] | % Remaining (peak area) after various treatment times [2] [%] | % Remaining (peak area) after various treatment times [3] [%] | % Remaining (peak area) after various treatment times [4] [%] | % Remaining (peak area) after 75 minutes (pH 4) [%] | % Remaining (peak area) after 240 minutes (pH 4) [%] | % Remaining (peak area) after 75 minutes (pH 5) [%] | % Remaining (peak area) after 240 minutes (pH 5) [%] | % Remaining (peak area) after 75 minutes (pH 6) [%] | % Remaining (peak area) after 240 minutes (pH 6) [%] | % Remaining (peak area) after 75 minutes (pH 7) [%] | % Remaining (peak area) after 240 minutes (pH 7) [%] | reduction in the area of the peaks (HPLC) following enzyme treatment |
| --- | --- | --- | --- | --- | --- | --- | --- | --- | --- | --- | --- | --- | --- |
| COc1cc2ccc(=O)oc2cc1O [S, 7-Hydroxy-6-methoxy-2H-1-benzopyran-2-one] | 82 | 3 | 30 | 12 | 89 | 58 | 94 | 12 | 96 | 6 | 100 | 112 | significant reduction |
| O=C(C=Cc1ccc(O)c(O)c1)OC1CC(O)(C(=O)O)CC(O)C1O (centres unmarked) [CA, 3-[[3-(3,4-Dihydroxyphenyl)-1-oxo-2-propenyl]oxy]1,4,5-trihydroxycyclohexanecarboxylic acid] | 23 | 0 | 0 | 0 | 5 | 0 | 11 | 0 | 22 | 0 | 94 | 85 | significant reduction |
